Broadly, the IC50 is the midpoint of a concentration-inhibition curve.

Our source for the IC50 values is patent US11274092B2, “Potassium channel inhibitors” (ACESION PHARMA ApS, priority 2016, dated 2022).

The structures appear in SMILES notation.

The experiment has as its target T1, human SK3 channel (hKCa2.3) (Homo sapiens, UniProt Q9UGI6).
T1 construct: expressed in transfected cells
Kind of experiment: Automated whole cell patch-clamp (QPatch 16 HT), inhibition of SK3 current. Type of experiment: cell-based. To be noted: HEK-293 cells stably expressing hKCa2.3; symmetrical K+ solutions, free calcium 400 nM; effects normalized to N-methyl bicuculline. The method, then:
Automated whole cell patch-clamp recordings were performed using a QPatch 16 HT system and single-hole Qplates (Biolin Scientific, Sophion, Denmark) on HEK-293 cells stably expressing the human SK3 channel (hKCa2.3). Cells were cultured and prepared for experiments using normal cell culturing procedures. A total of 4-5 million cells were used per experiment. The Qpatch automatically generates giga sealing, whole-cell formation, compound application and recording of current. hKCa2.3 currents were recorded in symmetrical K^+ solutions, with an intracellular solution consisting of in mM: KCl 108; KOH/EGTA (ethylene glycol-bis(2-aminoethylether)-N,N,N′,N′-tetraacetic acid) 31.25/10; CaCl2) 8.1; MgCl2 1.2; HEPES (2-[4-(2-hydroxyethyl)piperazin-1-yl]ethanesulfonic acid) 10; KOH 15, pH adjusted to pH=7.2 with HCl. The free calcium concentration was calculated to 400 nM. The extracellular solution consisted of in mM: KCl 150; CaCl2) 0.1; MgCl2 3; HEPES 10; Glucose 10, pH=7.4 with KOH. The cells were held at 0 mV and hKCa2.3 currents were elicited by a linear voltage ramp from […] (200 ms in duration) applied every 5th second. The compound application protocol consisted of 12 recording periods lasting from 50-200 s: 1) Baseline recordings in extracellular solution; 2) Application of the positive control N-methyl bicuculline (100 μM), which is characterized by full efficacy, fast on- and off-rate; 3-4) Wash-out; 5-9) Increasing concentrations of test compound to establish an IC50 value; 10-11) Wash-out; 12) positive control with compound NS8593 (N-[(1R)-1,2,3,4-tetrahydro-1-naphthalenyl]-1H-benzimidazol-2-amine) (1 μM). Data were sampled at 10 kHz, 4th order Bessel filter, cut-off frequency 3 kHz. Currents were compensated for run-down. Potency was quantified as the concentration needed to inhibit half of the SK channel activity and reported as an IC50 value. All effects of compounds of the present invention as tested were normalized to the observed inhibitory effect of N-methyl bicuculline.
As for `CCOC(=O)CNC(=O)CC(Nc1nc2ccccc2[nH]1)c1cccc(C(F)(F)F)c1` (stereo not drawn) [Example 23, Ethyl 2-{3-[(1H-1,3-benzodiazol-2-yl)amino]-3-[3-(trifluoromethyl)phenyl]propanamido}acetate], the IC50 was less than 10 µM.

With `COCCNC(=O)CC(Nc1nc2c(OC)cccc2[nH]1)c1cccc(C(F)(F)F)c1` (stereo not drawn) [Example 93, 3-[(4-methoxy-1H-1,3-benzodiazol-2-yl)amino]-N-(2-methoxyethyl)-3-[3-(trifluoromethyl)phenyl]propanamide], the IC50 was less than 10 µM.

As for `CN(CC#N)C(=O)CC(Nc1nc2ccccc2[nH]1)c1cccc(C(F)(F)F)c1` (stereo not drawn) [Example 56, 3-[(1H-1,3-benzodiazol-2-yl)amino]-N-(cyanomethyl)-N-methyl-3-[3-(trifluoromethyl)phenyl]propanamide], the IC50 was less than 10 µM.

Consider `O=C(CC(Nc1nc2ccccc2[nH]1)c1cccc(C(F)(F)F)c1)NCCOCC(F)(F)F` (single isomer, unassigned) [Example 68a, 3-[(1H-1,3-benzodiazol-2-yl)amino]-N-[2-(2,2,2-trifluoroethoxy)ethyl]-3-[3-(trifluoromethyl)phenyl]propanamide], for which the IC50 was less than 10 µM.

With `O=C(CC(Nc1nc2ccccc2[nH]1)c1cccc(C(F)(F)F)c1)N1CC(O)C1` (stereo not drawn) [Example 6, 3-[(1H-1,3-benzodiazol-2-yl)amino]-1-(3-hydroxyazetidin-1-yl)-3-[3-(trifluoromethyl)phenyl]propan-1-one], the IC50 was less than 10 µM.

For `COCCNC(=O)CC(Nc1nc2ccccc2[nH]1)c1cccc(SC(F)(F)F)c1` (stereo not drawn) [Example 82, 3-[(1H-1,3-benzodiazol-2-yl)amino]-N-(2-methoxyethyl)-3-{3-[(trifluoromethyl)sulfanyl]phenyl}propanamide], the IC50 was less than 10 µM.

Regarding `COC(=O)CN(C)C(=O)CC(Nc1nc2ccccc2[nH]1)c1cccc(C(F)(F)F)c1` (single isomer, unassigned; (-)) [Example 57a, (−)Methyl 2-{3-[(1H-1,3-benzodiazol-2-yl)amino]-N-methyl-3-[3-(trifluoromethyl)phenyl]propanamido}acetate], the 50% inhibitory concentration (IC50) was less than 10 µM.

Consider `COC(=O)CNC(=O)CC(Nc1nc2ccccc2[nH]1)c1cccc(C(F)(F)F)c1` (stereo not drawn) [Example 59, Methyl 2-{3-[(1H-1,3-benzodiazol-2-yl)amino]-3-[3-(trifluoromethyl)phenyl]propanamido}acetate], for which the IC50 was less than 10 µM.

As to `Cc1cccc(C(C)NC(=O)CC(Nc2nc3ccccc3[nH]2)c2cccc(C(F)(F)F)c2)n1` (stereo not drawn) [Example 76, 3-[(1H-1,3-benzodiazol-2-yl)amino]-N-[1-(6-methylpyridin-2-yl)ethyl]-3-[3-(trifluoromethyl)phenyl]propanamide], the IC50 was less than 10 µM.

Turning to `COCCNC(=O)CC(Nc1nc2ccccc2[nH]1)c1cccc(C(F)(F)F)c1` (stereo not drawn) [Example 42, 3-[(1H-1,3-benzodiazol-2-yl)amino]-N-(2-methoxyethyl)-3-[3-(trifluoromethyl)phenyl]propanamide], the IC50 was less than 10 µM.

Take `CCN(CCO)C(=O)C(Nc1nc2ccccc2[nH]1)c1cccc(C(F)(F)F)c1` (single isomer, unassigned; (+)) [Example 38b, (+)2-[(1H-1,3-benzodiazol-2-yl)amino]-N-ethyl-N-(2-hydroxyethyl)-2-[3-(trifluoromethyl)phenyl]acetamide]: the IC50 lay within 10 to 100 µM.

As for `COC(=O)CN(C)C(=O)CC(Nc1nc2ccccc2[nH]1)c1cccc(C(F)(F)F)c1` (stereo not drawn) [Example 57, Methyl 2-{3-[(1H-1,3-benzodiazol-2-yl)amino]-N-methyl-3-[3-(trifluoromethyl)phenyl]propanamido}acetate], the IC50 is less than 10 µM.

`O=C(CC(Nc1nc2ccccc2[nH]1)c1cccc(OC(F)(F)F)c1)NCc1ccon1` (stereo not drawn) [Example 88, 3-[(1H-1,3-benzodiazol-2-yl)amino]-N-(1,2-oxazol-3-ylmethyl)-3-[3-(trifluoromethoxy)phenyl]propanamide]: the IC50 is less than 10 µM.

Regarding `COC[C@H](NC(=O)CC(Nc1nc2ccccc2[nH]1)c1cccc(SC(F)(F)F)c1)c1ccccc1` (single isomer, unassigned) [Example 70a], the IC50 was less than 10 µM.

For `CCN(CCO)C(=O)CC(Nc1nc2ccccc2[nH]1)c1ccc(Cl)c(C)c1` (single isomer, unassigned; (-)) [Example 40a, (−)3-[(1H-1,3-benzodiazol-2-yl)amino]-3-(4-chloro-3-methylphenyl)-N-ethyl-N-(2-hydroxyethyl)propanamide], the IC50 is less than 10 µM.

Turning to `CN(C)C1CN(C(=O)C(Nc2nc3ccccc3[nH]2)c2cccc(C(F)(F)F)c2)C1` (stereo not drawn) [Example 28, 2-[(1H-1,3-benzodiazol-2-yl)amino]-1-[3-(dimethylamino)azetidin-1-yl]-2-[3-(trifluoromethyl)phenyl]ethan-1-one], the IC50 lay within 10 to 100 µM.

`CCN(CC#N)C(=O)CC(Nc1nc2c(CCO)cccc2[nH]1)c1cccc(C(F)(F)F)c1` (stereo not drawn) [Example 52, N-(cyanomethyl)-N-ethyl-3-{[4-(2-hydroxyethyl)-1H-1,3-benzodiazol-2-yl]amino}-3-[3-(trifluoromethyl)phenyl]propanamide]: the IC50 is 10 to 100 µM.

In the case of `COCCNC(=O)CC(Nc1nc2ccccc2[nH]1)c1cccc(C(F)(F)F)c1` (single isomer, unassigned; (-)) [Example 42a, (−)3-[(1H-1,3-benzodiazol-2-yl)amino]-N-(2-methoxyethyl)-3-[3-(trifluoromethyl)phenyl]propanamide], the IC50 was less than 10 µM.

As for `O=C(NC1COC1)C(Nc1nc2ccccc2[nH]1)c1cccc(C(F)(F)F)c1` (stereo not drawn) [Example 35, 2-[(1H-1,3-benzodiazol-2-yl)amino]-N-(oxetan-3-yl)-2-[3-(trifluoromethyl)phenyl]acetamide], the concentration for half-maximal inhibition (IC50) fell in the range of 10 to 100 µM.

`O=C(CC(Nc1nc2ccccc2[nH]1)c1cccc(C(F)(F)F)c1)NCCNS(=O)(=O)Cc1ccccc1` (stereo not drawn) [Example 12, 3-[(1H-1,3-benzodiazol-2-yl)amino]-N-[2-(phenylmethanesulfonamido)ethyl]-3-[3-(trifluoromethyl)phenyl]propanamide]: the IC50 lay in the range of 10 to 100 µM.

On to `Cn1ccnc1CNC(=O)CC(Nc1nc2ccccc2[nH]1)c1cccc(C(F)(F)F)c1` (stereo not drawn) [Example 19, 3-[(1H-1,3-benzodiazol-2-yl)amino]-N-[(1-methyl-1H-imidazol-2-yl)methyl]-3-[3-(trifluoromethyl)phenyl]propanamide], for which the IC50 lay within 10 to 100 µM.

Turning to `CCN(CC#N)C(=O)CC(Nc1nc2c(CO)cccc2[nH]1)c1cccc(C(F)(F)F)c1` (stereo not drawn) [Example 53, N-(cyanomethyl)-N-ethyl-3-{[4-(hydroxymethyl)-1H-1,3-benzodiazol-2-yl]amino}-3-[3-(trifluoromethyl)phenyl]propanamide], the IC50 was 10 to 100 µM.

With `CCN(CCO)C(=O)C(Nc1nc2ccccc2[nH]1)c1cccc(C(F)(F)F)c1` (single isomer, unassigned; (-)) [Example 38a, (−)2-[(1H-1,3-benzodiazol-2-yl)amino]-N-ethyl-N-(2-hydroxyethyl)-2-[3-(trifluoromethyl)phenyl]acetamide], the IC50 is less than 10 µM.

Take `O=C(CC(Nc1nc2ccccc2[nH]1)c1cccc(SC(F)(F)F)c1)NCCOC(F)(F)F` (stereo not drawn) [Example 81, 3-[(1H-1,3-benzodiazol-2-yl)amino]-N-[2-(trifluoromethoxy)ethyl]-3-{3-[(trifluoromethyl)sulfanyl]phenyl}propanamide]: the IC50 was less than 10 µM.
